Test results reported in patent US4340609A, “Amidinourea derivative veterinary compositions for suppression of parasitemia” (William H. Rorer, Inc., priority 1980, dated 1982).
Where two headings read alike, the source gives them in different places.

Assays:
plasmodium berghei = assay: suppression of parasitemia in mice infected with plasmodium berghei; type: in vivo; conditions: for ED50: Plasmodium berghei, sc; for ED50 / Mean % Parasitemia / Mean % Suppression / % died: mice
Procedure: Five representative amidinoureas were tested in mice infected with plasmodium berghei. The five compounds tested are the following:
Groups of 10 mice each were used in seven doses totaling 70 mice per compound. The protozoal infection was induced by intraperitoneal injection of 5,000,000 parasitized blood cells from a donor. The compound was administered subcutaneously in doses ranging from 0.15 to 10 mg. per kg., suspended on 0.5% methacel solution (doses expressed as base). The compound was repeatedly injected on the day of inoculation (day 1), day 2 and day 3. Blood smears were performed on days 4, 5, 6 and 10.
Untreated control but infected mice developed fulminating parasitemia of as high as 35% on day 10 and deaths occurred from day 12 to 14.

LD50 in mice = conditions: mouse, in vivo
[1] = test system: Babesis caballi, or B. equi; conditions: horses; reported; cited from earlier work
P. berghei = conditions: cited from earlier work
[2] = s.c., 2.0 mg/kg on days 1-3, 4th day
[3] = s.c., 2.0 mg/kg on days 1-3, 5th day
[4] = s.c., 2.0 mg/kg on days 1-3, 6th day
[5] = s.c., 2.0 mg/kg on days 1-3, 10th day
[6] = s.c., 10.0 mg/kg on days 1-3, 4th day
[7] = s.c., 10.0 mg/kg on days 1-3, 5th day
[8] = s.c., 10.0 mg/kg on days 1-3, 6th day
[9] = s.c., 10.0 mg/kg on days 1-3, 10th day
[10] = s.c., .20 mg/kg on days 1-3, 4th day
[11] = s.c., .20 mg/kg on days 1-3, 5th day
[12] = s.c., .20 mg/kg on days 1-3, 6th day
[13] = s.c., .20 mg/kg on days 1-3, 10th day
[14] = s.c., .50 mg/kg on days 1-3, 4th day
[15] = s.c., .50 mg/kg on days 1-3, 5th day
[16] = s.c., .50 mg/kg on days 1-3, 6th day
[17] = s.c., .50 mg/kg on days 1-3, 10th day

Compound: Cc1cccc(C)c1NC(=O)NC(=N)NC(C)C.Cl [Compound E, 1-(2,6-dimethylphenyl)-3-(isopropylamidino)urea hydrochloride]
- ED50 (plasmodium berghei; 96 h, s.c., levels of parasitemia, 4th day, read-out: SED50 (Suppressant Effective Dose50)): 0.9 mg/kg
- ED50 (plasmodium berghei; 120 h, s.c., levels of parasitemia, 5th day, read-out: SED50 (Suppressant Effective Dose50)): 1.52 mg/kg
- ED50 (plasmodium berghei; 144 h, s.c., levels of parasitemia, 6th day, read-out: SED50 (Suppressant Effective Dose50)): 1.52 mg/kg
- ED50 (plasmodium berghei; 240 h, s.c., levels of parasitemia, 10th day, read-out: SED50 (Suppressant Effective Dose50)): 5.63 mg/kg
- ED50 (plasmodium berghei; day 4 to day 10, read-out: HIGHEST SED50): 5.63 mg/kg
- ED50 (plasmodium berghei; day 4 to day 10, read-out: LOWEST SED50): 0.9 mg/kg
- FACTOR (HIGHEST SED50 ÷ LOWEST SED50) (plasmodium berghei; factor of change, day 4 to day 10, duration of action): 6.26
- Mean % Parasitemia (plasmodium berghei; [2]): 1.75%
- Mean % Suppression (plasmodium berghei; [2]): 66.7%
- Mean % Parasitemia (plasmodium berghei; [3]): 3.50%
- Mean % Suppression (plasmodium berghei; [3]): 52.1%
- Mean % Parasitemia (plasmodium berghei; [4]): 4.10%
- Mean % Suppression (plasmodium berghei; [4]): 55.9%
- Mean % Parasitemia (plasmodium berghei; [5]): 27.7%
- Mean % Suppression (plasmodium berghei; [5]): 22.0%
- % died (plasmodium berghei; s.c., 2.0 mg/kg on days 1-3, 12th day): 0%
- % died (plasmodium berghei; s.c., 2.0 mg/kg on days 1-3, 13th day): 20%
- % died (plasmodium berghei; s.c., 2.0 mg/kg on days 1-3, 14th day): 40%
- Mean % Parasitemia (plasmodium berghei; [6]): 0%
- Mean % Suppression (plasmodium berghei; [6]): 100.0%
- Mean % Parasitemia (plasmodium berghei; [7]): 0%
- Mean % Suppression (plasmodium berghei; [7]): 100.0%
- Mean % Parasitemia (plasmodium berghei; [8]): 0%
- Mean % Suppression (plasmodium berghei; [8]): 100.0%
- Mean % Parasitemia (plasmodium berghei; [9]): 0%
- Mean % Suppression (plasmodium berghei; [9]): 100.0%
- % died (plasmodium berghei; s.c., 10.0 mg/kg on days 1-3, 12th day): 0%
- % died (plasmodium berghei; s.c., 10.0 mg/kg on days 1-3, 13th day): 0%
- % died (plasmodium berghei; s.c., 10.0 mg/kg on days 1-3, 14th day): 0%
- Mean % Parasitemia (plasmodium berghei; [10]): 5.25%
- Mean % Suppression (plasmodium berghei; [10]): 0%
- Mean % Parasitemia (plasmodium berghei; [11]): 7.00%
- Mean % Suppression (plasmodium berghei; [11]): 4.1%
- Mean % Parasitemia (plasmodium berghei; [12]): 8.70%
- Mean % Suppression (plasmodium berghei; [12]): 6.5%
- Mean % Parasitemia (plasmodium berghei; [13]): 33.9%
- Mean % Suppression (plasmodium berghei; [13]): 4.5%
- % died (plasmodium berghei; s.c., .20 mg/kg on days 1-3, 12th day): 0%
- % died (plasmodium berghei; s.c., .20 mg/kg on days 1-3, 13th day): 60%
- % died (plasmodium berghei; s.c., .20 mg/kg on days 1-3, 14th day): 60%
- Mean % Parasitemia (plasmodium berghei; [14]): 2.50%
- Mean % Suppression (plasmodium berghei; [14]): 52.3%
- Mean % Parasitemia (plasmodium berghei; [15]): 6.90%
- Mean % Suppression (plasmodium berghei; [15]): 5.5%
- Mean % Parasitemia (plasmodium berghei; [16]): 7.40%
- Mean % Suppression (plasmodium berghei; [16]): 20.4%
- Mean % Parasitemia (plasmodium berghei; [17]): 31.3%
- Mean % Suppression (plasmodium berghei; [17]): 11.8%
- % died (plasmodium berghei; s.c., .50 mg/kg on days 1-3, 12th day): 0%
- % died (plasmodium berghei; s.c., .50 mg/kg on days 1-3, 13th day): 20%
- % died (plasmodium berghei; s.c., .50 mg/kg on days 1-3, 14th day): 60%
- LD50 (LD50 in mice): 82 to 135 mg/kg

Compound: C[n+]1cccc2cc(NC(=O)Nc3ccc4c(ccc[n+]4C)c3)ccc21 [acaprin]
- effect on equine piroplasmosis parasites [1]: only to reduce the number of parasites

Compound: N=C(N)c1ccc(N=NNc2ccc(C(=N)N)cc2)cc1 [birenil]
- effect on equine piroplasmosis parasites [1]: only to reduce the number of parasites

Compound: CC1(C)N=C(N)N=C(N)N1c1ccc(Cl)cc1 [chloroguanide triazine pamoate]
- excretion from the host body (P. berghei; P. berghei infected mice, single muscular injection): not excreted rapidly from the host body
- effect in P. berghei infected mice (P. berghei; single muscular injection): good and lasting effects

Compound: CCc1nc(N)nc(N)c1-c1ccc(Cl)cc1 [pyrimethamine]
- resistance of P. berghei (P. berghei; P. berghei): resistant

Compound: acriflavin
- effect on equine piroplasmosis parasites [1]: only to reduce the number of parasites
